Source: patent US20090099029A1, “Methods and substrates for conducting assays” (Invitrogen Corporation, priority 2005, published 2009)

Experiments:
Assay in all cases: Further analysis of a plurality of inhibitors and a plurality of kinases (Table 5 inhibition results)
Assay type in all cases: biochemical
Parameters in all cases: scale not given here
[1] = target: kinases of Table 5 (Homo sapiens, UniProt P07949); conditions: for Inhibition level: kinase RET; for Inhibition Results (Level): kinase RET (Part II, plate B7, Domain 1)
Sequence of kinases of Table 5 (Homo sapiens, UniProt P07949) (P07949 29-1114): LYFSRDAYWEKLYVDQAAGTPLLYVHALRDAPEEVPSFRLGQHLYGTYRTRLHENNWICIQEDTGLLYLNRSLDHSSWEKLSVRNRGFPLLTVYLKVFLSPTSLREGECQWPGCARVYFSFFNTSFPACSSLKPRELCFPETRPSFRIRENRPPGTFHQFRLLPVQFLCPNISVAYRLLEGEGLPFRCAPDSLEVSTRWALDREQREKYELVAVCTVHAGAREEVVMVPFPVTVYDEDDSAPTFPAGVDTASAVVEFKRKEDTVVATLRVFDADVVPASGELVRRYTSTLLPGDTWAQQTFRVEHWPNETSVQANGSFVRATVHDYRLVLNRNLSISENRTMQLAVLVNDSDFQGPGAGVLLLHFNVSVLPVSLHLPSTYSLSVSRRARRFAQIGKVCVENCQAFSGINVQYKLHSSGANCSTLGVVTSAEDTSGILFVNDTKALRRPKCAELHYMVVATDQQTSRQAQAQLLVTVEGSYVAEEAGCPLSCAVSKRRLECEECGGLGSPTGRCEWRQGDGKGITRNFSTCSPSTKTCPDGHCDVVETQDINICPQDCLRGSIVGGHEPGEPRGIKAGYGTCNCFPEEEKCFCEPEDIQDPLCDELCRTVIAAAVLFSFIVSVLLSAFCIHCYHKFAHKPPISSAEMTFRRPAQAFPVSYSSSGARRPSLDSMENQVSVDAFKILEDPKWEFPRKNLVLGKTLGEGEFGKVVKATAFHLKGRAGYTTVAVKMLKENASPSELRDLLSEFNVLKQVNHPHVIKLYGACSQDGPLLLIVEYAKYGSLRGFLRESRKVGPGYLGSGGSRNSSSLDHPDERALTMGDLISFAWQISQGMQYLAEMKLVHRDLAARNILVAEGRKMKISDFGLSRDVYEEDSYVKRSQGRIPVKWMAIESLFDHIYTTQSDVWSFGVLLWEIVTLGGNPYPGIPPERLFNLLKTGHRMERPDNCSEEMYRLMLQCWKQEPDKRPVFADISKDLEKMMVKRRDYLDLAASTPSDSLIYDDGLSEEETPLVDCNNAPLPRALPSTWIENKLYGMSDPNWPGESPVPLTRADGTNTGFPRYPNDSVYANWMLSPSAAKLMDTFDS
From the text: (§1) The wash solution is then discarded.

[2] = target: kinases of Table 5 (Homo sapiens, UniProt P16591); conditions: inhibitor 100 uM; for Inhibition level: kinase FER; for Inhibition Results (Level): kinase FER (Part II, plate H5, Domain 1)
Sequence of kinases of Table 5 (Homo sapiens, UniProt P16591) (P16591 whole entry): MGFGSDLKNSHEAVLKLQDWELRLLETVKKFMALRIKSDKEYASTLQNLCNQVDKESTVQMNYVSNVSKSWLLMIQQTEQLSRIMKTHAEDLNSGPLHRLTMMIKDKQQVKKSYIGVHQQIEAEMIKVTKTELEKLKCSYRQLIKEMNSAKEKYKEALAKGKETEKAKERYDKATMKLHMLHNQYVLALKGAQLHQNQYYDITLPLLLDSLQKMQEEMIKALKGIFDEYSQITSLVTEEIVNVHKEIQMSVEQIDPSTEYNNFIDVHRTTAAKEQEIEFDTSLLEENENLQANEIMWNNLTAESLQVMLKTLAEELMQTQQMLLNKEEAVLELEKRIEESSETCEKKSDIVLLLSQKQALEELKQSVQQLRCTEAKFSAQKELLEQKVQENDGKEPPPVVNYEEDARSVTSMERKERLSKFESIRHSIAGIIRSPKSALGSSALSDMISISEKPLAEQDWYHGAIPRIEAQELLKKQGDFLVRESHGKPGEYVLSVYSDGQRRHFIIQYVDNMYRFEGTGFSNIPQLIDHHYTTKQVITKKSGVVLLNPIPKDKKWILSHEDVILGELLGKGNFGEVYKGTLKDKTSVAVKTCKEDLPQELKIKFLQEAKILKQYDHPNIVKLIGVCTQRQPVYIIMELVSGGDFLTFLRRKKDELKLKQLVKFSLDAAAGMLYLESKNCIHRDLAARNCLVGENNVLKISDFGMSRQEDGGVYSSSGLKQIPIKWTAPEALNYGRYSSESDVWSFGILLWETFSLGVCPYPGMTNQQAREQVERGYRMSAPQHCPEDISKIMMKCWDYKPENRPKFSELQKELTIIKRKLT
From the text: as §1

[3] = target: kinases of Table 5 (Homo sapiens, UniProt P21802); conditions: for Inhibition level: kinase FGFR2
Sequence of kinases of Table 5 (Homo sapiens, UniProt P21802) (P21802 22-821): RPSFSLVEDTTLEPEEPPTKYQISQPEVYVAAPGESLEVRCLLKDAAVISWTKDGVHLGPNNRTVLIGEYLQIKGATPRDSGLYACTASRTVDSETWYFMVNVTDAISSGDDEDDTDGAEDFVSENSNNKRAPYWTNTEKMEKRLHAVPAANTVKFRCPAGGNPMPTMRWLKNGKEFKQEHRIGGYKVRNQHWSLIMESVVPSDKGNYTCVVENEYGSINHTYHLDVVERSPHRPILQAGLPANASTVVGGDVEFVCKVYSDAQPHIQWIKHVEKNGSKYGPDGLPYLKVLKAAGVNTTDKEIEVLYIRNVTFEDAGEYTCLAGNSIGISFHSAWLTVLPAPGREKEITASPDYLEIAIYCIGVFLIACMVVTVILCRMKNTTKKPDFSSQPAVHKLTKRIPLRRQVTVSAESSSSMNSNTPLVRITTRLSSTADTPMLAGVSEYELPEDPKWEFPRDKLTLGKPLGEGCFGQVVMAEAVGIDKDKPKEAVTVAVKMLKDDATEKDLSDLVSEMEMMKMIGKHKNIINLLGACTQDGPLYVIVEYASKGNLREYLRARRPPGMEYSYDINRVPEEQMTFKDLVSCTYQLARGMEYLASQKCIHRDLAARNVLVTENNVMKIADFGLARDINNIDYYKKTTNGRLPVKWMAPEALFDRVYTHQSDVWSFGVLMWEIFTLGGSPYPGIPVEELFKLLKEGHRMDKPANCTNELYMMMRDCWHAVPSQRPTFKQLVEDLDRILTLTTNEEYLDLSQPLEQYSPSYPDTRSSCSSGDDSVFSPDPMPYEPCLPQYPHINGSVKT
From the text: as §1

[4] = target: T1, kinases of Table 5 (Homo sapiens, UniProt P54753); conditions: for Inhibition level: kinase EPHB3; for Inhibition Results (Level): kinase EPHB3 (Part II, plate B5, Domain 1)
T1 sequence (P54753 34-998): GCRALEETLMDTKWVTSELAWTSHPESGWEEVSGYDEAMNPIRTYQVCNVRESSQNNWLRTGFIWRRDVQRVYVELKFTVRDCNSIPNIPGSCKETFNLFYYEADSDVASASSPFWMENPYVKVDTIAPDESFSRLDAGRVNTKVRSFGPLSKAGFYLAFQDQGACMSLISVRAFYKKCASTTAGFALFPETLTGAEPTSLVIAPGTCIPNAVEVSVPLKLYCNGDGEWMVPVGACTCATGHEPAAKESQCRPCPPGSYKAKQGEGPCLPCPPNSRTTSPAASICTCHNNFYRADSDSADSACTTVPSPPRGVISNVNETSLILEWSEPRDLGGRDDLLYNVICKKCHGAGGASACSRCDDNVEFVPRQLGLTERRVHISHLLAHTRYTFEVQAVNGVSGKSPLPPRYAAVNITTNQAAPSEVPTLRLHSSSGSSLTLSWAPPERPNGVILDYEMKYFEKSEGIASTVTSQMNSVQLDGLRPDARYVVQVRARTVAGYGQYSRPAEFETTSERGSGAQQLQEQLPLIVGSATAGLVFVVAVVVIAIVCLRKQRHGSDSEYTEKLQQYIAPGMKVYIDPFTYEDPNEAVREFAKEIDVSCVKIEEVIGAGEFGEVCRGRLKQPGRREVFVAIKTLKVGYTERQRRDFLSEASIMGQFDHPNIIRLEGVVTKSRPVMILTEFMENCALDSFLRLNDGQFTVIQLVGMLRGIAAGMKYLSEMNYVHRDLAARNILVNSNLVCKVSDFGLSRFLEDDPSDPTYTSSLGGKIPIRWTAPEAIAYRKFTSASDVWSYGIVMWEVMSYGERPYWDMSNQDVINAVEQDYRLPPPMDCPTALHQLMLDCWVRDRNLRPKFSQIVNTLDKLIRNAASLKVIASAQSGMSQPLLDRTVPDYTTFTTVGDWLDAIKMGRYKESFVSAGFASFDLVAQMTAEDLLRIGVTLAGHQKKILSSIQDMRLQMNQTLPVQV
From the text: as §1

[5] = target: T2, kinases of Table 5 (Homo sapiens, UniProt Q8IVH8); conditions: kinase MAP4K3 (Part I, plate C5, Domain 1); inhibitor 100 uM
T2 sequence (Q8IVH8 1-894): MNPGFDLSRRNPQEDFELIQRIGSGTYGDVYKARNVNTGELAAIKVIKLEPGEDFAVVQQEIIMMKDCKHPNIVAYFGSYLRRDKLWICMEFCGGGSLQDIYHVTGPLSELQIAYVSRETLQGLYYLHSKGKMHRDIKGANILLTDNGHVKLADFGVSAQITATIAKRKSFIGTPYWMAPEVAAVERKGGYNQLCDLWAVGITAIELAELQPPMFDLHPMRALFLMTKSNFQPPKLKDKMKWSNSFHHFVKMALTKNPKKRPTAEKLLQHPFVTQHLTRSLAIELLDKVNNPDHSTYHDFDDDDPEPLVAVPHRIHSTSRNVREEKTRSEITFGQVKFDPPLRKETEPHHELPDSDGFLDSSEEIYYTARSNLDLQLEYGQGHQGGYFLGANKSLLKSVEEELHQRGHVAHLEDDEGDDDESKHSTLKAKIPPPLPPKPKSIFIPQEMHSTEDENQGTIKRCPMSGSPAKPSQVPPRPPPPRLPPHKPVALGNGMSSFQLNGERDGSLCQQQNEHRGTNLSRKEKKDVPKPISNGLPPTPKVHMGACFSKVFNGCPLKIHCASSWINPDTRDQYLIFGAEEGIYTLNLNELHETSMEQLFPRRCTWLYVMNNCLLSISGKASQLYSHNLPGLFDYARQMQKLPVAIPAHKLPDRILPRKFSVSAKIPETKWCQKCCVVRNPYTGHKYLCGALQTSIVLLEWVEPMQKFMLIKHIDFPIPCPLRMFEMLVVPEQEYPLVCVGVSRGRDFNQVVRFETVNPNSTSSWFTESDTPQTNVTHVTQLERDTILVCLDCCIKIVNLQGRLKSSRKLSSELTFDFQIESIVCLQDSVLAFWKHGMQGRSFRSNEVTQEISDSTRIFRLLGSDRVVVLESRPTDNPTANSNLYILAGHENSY
From the text: as §1

[6] = target: kinases of Table 5 (Homo sapiens, UniProt Q9Y6E0); conditions: inhibitor 100 uM; for Inhibition level: kinase STK24; for Inhibition Results (Level): kinase STK24 (Part II, plate F11, Domain 0)
Sequence of kinases of Table 5 (Homo sapiens, UniProt Q9Y6E0) (Q9Y6E0 whole entry): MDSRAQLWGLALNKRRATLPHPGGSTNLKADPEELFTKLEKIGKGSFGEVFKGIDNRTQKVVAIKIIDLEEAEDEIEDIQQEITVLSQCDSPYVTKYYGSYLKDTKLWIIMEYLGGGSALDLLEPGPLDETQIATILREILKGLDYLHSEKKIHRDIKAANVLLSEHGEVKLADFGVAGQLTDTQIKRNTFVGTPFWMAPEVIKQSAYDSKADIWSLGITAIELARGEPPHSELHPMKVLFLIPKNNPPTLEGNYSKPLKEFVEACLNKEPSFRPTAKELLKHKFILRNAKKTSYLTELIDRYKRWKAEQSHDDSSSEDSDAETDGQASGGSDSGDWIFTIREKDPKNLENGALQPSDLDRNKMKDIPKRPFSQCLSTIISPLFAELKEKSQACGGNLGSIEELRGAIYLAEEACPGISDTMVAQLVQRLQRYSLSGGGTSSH
From the text: as §1

[7] = kinase FGFR2 (Part I, plate G8, Domain 1), inhibitor 100 uM
[8] = kinase FGFR2 (Part II, plate B4, Domain 1), inhibitor 100 uM

Row | Inhibition level ([1]; inhibitor 100 uM) | Inhibition level [2] | Inhibition Results (Level) [3, 7] | Inhibition level ([3]; inhibitor 100 uM) | Inhibition level ([4]; inhibitor 100 uM) | Inhibition Results (Level) [5] | Inhibition level [6] | Inhibition level ([1]; concentration not given) | Inhibition Results (Level) ([3]; kinase FGFR2 (Part I, plate G8, Domain 1), inhibitor <3.7 mM) | Inhibition level ([3]; concentration not given) | Inhibition level ([4]; concentration not given) | Inhibition Results (Level) ([3]; kinase FGFR2 (Part I, plate G8, Domain 1), inhibitor 90 uM) | Compound | Inhibition Results (Level) ([1]; inhibitor 100 uM) | Inhibition Results (Level) [2] | Inhibition Results (Level) [3, 8] | Inhibition Results (Level) ([4]; inhibitor 100 uM) | Inhibition Results (Level) [6]
1 | 2 | 1 | 2 | 2 | 2 | 2 | 1 | – | – | – | – | – | COc1cc2ncnc(Nc3cccc(Cl)c3)c2cc1OC [AG 1478] | – | – | – | – | –
2 | 2 | 2 | 2 | 2 | 2 | 2 | 2 | 0 | 0 | 1 | 0 | – | O=c1c(-c2ccc(O)cc2)coc2cc(O)cc(O)c12 [Genistein] | – | – | – | – | –
3 | 2 | 2 | 2 | 2 | 2 | 2 | 2 | – | – | – | – | – | CC(C)(C)n1nc(-c2ccc(Cl)cc2)c2c(N)ncnc21 [PP2] | – | – | – | – | –
4 | 0 | 2 | 2 | 2 | 2 | 2 | 2 | 2 | – | 0 | 0 | 2 | Cn1cc(C2=C(c3cn(CCCSC(=N)N)c4ccccc34)C(=O)NC2=O)c2ccccc21 [Ro-31-8220] | – | – | – | – | –

Continued, compound first:

Row | Compound | Inhibition level ([1]; inhibitor 100 uM) | Inhibition level [2] | Inhibition Results (Level) [3, 7] | Inhibition level ([3]; inhibitor 100 uM) | Inhibition level ([4]; inhibitor 100 uM) | Inhibition Results (Level) [5] | Inhibition level [6] | Inhibition level ([1]; concentration not given) | Inhibition Results (Level) ([3]; kinase FGFR2 (Part I, plate G8, Domain 1), inhibitor <3.7 mM) | Inhibition level ([3]; concentration not given) | Inhibition level ([4]; concentration not given) | Inhibition Results (Level) ([3]; kinase FGFR2 (Part I, plate G8, Domain 1), inhibitor 90 uM) | Inhibition Results (Level) ([1]; inhibitor 100 uM) | Inhibition Results (Level) [2] | Inhibition Results (Level) [3, 8] | Inhibition Results (Level) ([4]; inhibitor 100 uM) | Inhibition Results (Level) [6]
5 | N#C/C(=C/c1ccc(O)c(O)c1)C(=O)NCc1ccccc1 [AG 490] | 2 | 2 | 2 | 2 | 2 | 1 | 2 | – | – | – | – | – | – | – | – | – | –
6 | O=S(=O)(NCCNC/C=C/c1ccc(Br)cc1)c1cccc2cnccc12 [H-89] | – | – | 2 | – | – | 1 | – | – | – | – | – | – | 0 | 2 | 2 | 1 | 2
7 | O=c1c(O)c(-c2ccc(O)c(O)c2)oc2cc(O)cc(O)c12 [Quercetin] | – | – | 0 | – | – | 1 | – | – | – | – | – | – | – | 1 | 0 | 2 | –
8 | CC(=O)c1c(O)c(C)c(O)c(Cc2c(O)c3c(c(C(=O)/C=C/c4ccccc4)c2O)OC(C)(C)C=C3)c1O [Rottlerin (Mallotoxin)] | – | – | 2 | – | – | 1 | – | – | – | – | – | – | 0 | 2 | 0 | 2 | 1
9 | CN[C@@H]1C[C@H]2O[C@@](C)([C@@H]1OC)n1c3ccccc3c3c4c(c5c6ccccc6n2c5c31)C(=O)NC4 [Staurosporine] | – | – | – | – | – | – | – | – | – | – | 0 | – | – | – | – | – | –
